± gives the uncertainty stated by the source.
Assay: xn = mol fraction of the nth substance listed
Conditions: 101 kPa

CC(C)CCO + c1ccccc1
viscosity [mPa·s]
Conditions	293.15 K	298.15 K	303.15 K	308.15 K	313.15 K	318.15 K	323.15 K
x1 = 0.05	0.673 ± 0.008	0.627 ± 0.007	0.586 ± 0.007	0.548 ± 0.006	0.515 ± 0.006	0.484 ± 0.006	0.456 ± 0.005
x1 = 0.1	0.705 ± 0.008	0.656 ± 0.008	0.612 ± 0.007	0.573 ± 0.007	0.537 ± 0.006	0.505 ± 0.006	0.475 ± 0.006
x1 = 0.15	0.739 ± 0.009	0.688 ± 0.008	0.641 ± 0.008	0.6 ± 0.007	0.562 ± 0.007	0.527 ± 0.006	0.496 ± 0.006
x1 = 0.2	0.777 ± 0.009	0.723 ± 0.008	0.673 ± 0.008	0.629 ± 0.007	0.589 ± 0.007	0.552 ± 0.007	0.519 ± 0.006
x1 = 0.25	0.819 ± 0.01	0.761 ± 0.009	0.708 ± 0.008	0.661 ± 0.008	0.618 ± 0.007	0.58 ± 0.007	0.544 ± 0.006
x1 = 0.3	0.866 ± 0.01	0.804 ± 0.009	0.748 ± 0.009	0.697 ± 0.008	0.651 ± 0.008	0.61 ± 0.007	0.572 ± 0.007
x1 = 0.35	0.919 ± 0.011	0.852 ± 0.01	0.791 ± 0.009	0.737 ± 0.009	0.688 ± 0.008	0.643 ± 0.008	0.602 ± 0.007
x1 = 0.4	0.979 ± 0.011	0.906 ± 0.011	0.84 ± 0.01	0.782 ± 0.009	0.728 ± 0.009	0.68 ± 0.008	0.636 ± 0.008
x1 = 0.45	1.046 ± 0.012	0.967 ± 0.011	0.896 ± 0.01	0.832 ± 0.01	0.774 ± 0.009	0.722 ± 0.008	0.674 ± 0.008
x1 = 0.5	1.124 ± 0.013	1.037 ± 0.012	0.96 ± 0.011	0.89 ± 0.01	0.826 ± 0.01	0.769 ± 0.009	0.717 ± 0.008
x1 = 0.55	1.214 ± 0.014	1.119 ± 0.013	1.033 ± 0.012	0.956 ± 0.011	0.886 ± 0.01	0.823 ± 0.01	0.766 ± 0.009
x1 = 0.6	1.321 ± 0.015	1.214 ± 0.014	1.118 ± 0.013	1.032 ± 0.012	0.955 ± 0.011	0.885 ± 0.01	0.822 ± 0.01
x1 = 0.65	1.447 ± 0.017	1.326 ± 0.015	1.219 ± 0.014	1.122 ± 0.013	1.036 ± 0.012	0.957 ± 0.011	0.887 ± 0.01
x1 = 0.7	1.6 ± 0.018	1.462 ± 0.017	1.339 ± 0.015	1.23 ± 0.014	1.131 ± 0.013	1.042 ± 0.012	0.962 ± 0.011
x1 = 0.75	1.789 ± 0.021	1.629 ± 0.019	–	–	–	–	–

Reference: the CheMixHub viscosity set
